Experimental data taken from publication doi:10.1101/2025.07.30.667614, “Steric control of signaling bias in the immunometabolic receptor GPR84” (bioRxiv, 2025).
Where two headings read alike, the source gives them in different places.

Experiments:
[1] = biological target: T1, GPR84 F187A (GPR84-Gi2α fusion protein) (Homo sapiens, UniProt Q9NQS5, F187A); assay: [35S]GTPγS binding assay; assay type: biochemical
T1 construct: FLAG (N); Gαi2-Cys352Ile (fusion partner) (C); expressed in transfected cells
T1 sequence (Q9NQS5 whole entry F187A, the tested form may be a part): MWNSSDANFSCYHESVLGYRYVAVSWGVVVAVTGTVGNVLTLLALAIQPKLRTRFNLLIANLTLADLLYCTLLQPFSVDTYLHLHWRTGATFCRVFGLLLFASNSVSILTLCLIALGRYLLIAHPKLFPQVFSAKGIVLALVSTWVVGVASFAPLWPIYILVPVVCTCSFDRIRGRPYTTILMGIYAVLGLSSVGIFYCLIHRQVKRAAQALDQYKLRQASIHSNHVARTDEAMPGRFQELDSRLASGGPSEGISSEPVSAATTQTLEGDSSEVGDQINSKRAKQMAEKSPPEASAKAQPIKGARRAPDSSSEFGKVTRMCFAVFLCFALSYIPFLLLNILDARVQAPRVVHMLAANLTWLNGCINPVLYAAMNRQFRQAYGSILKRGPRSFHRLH
Method: (§1) Membranes were generated from Flp-In™ T-REx™ 293 cells following 100 ng/ml doxycycline treatment to induce receptor expression. Cells were washed with ice-cold phosphate-buffered saline (PBS), removed from dishes by scraping and centrifuged at 1,800 x g for 5 min at 4 °C. Pellets were resuspended in TE buffer (10mM Tris-HCl, 0.1 mM EDTA; pH 7.4) containing a protease inhibitor mixture and homogenized with a 5 ml hand-held homogenizer. Samples were centrifuged at 450 x g for 5 min at 4 °C and the supernatant was further centrifuged at 90,000 x g for 45 min at 4 °C. The resulting pellet was resuspended in TE buffer and protein content was assessed using a BCA protein assay kit.
(§2) Prepared membrane protein (3 μg per well) was incubated in assay buffer (20 mM HEPES, 5 mM MgCl2, 160 mM NaCl, 0.05 % fatty-acid-free bovine serum albumin; pH 7.4) containing the indicated ligand concentrations. The reaction was initiated by addition of [^35S]GTPγS (100 nCi per reaction) with 1 μM GDP, and incubated at 30 °C for 60 min. The reaction was terminated by rapid vacuum filtration through GF/C glassfibre filter-bottom 96-well microplates using a UniFilter FilterMate Harvester (PerkinElmer). Unbound radioligand was removed from filters by three washes with ice-cold PBS. Ultima Gold™ XR was added to dried filters, and [^35S]GTPγS binding quantified by liquid scintillation spectroscopy.

[2] = biological target: T2, GPR84 L336A (GPR84-Gi2α fusion protein) (Homo sapiens, UniProt Q9NQS5, L336A); assay: [35S]GTPγS binding assay; assay type: biochemical
T2 construct: FLAG (N); Gαi2-Cys352Ile (fusion partner) (C); expressed in transfected cells
T2 sequence (Q9NQS5 whole entry L336A, the tested form may be a part): as the sequence (Q9NQS5 whole entry F187A, the tested form may be a part) above, with A187F, L336A counted along it
Method: as §1, §2

[3] = biological target: T3, GPR84 N104A (GPR84-Gi2α fusion protein) (Homo sapiens, UniProt Q9NQS5, N104A); assay: [35S]GTPγS binding assay; assay type: biochemical; settings: for fold reduction in potency compared to wild type: Asn104Ala; for Emax: read-out: Emax ± SEM
T3 construct: FLAG (N); Gαi2-Cys352Ile (fusion partner) (C); expressed in transfected cells
T3 sequence (Q9NQS5 whole entry N104A, the tested form may be a part): as the sequence (Q9NQS5 whole entry F187A, the tested form may be a part) above, with N104A, A187F counted along it
Method: as §1, §2

GPR84 N362S = biological target: T4, GPR84 N362S (Homo sapiens, UniProt Q9NQS5, N362S); assay: [35S]GTPγS binding assay; assay type: biochemical; settings: for Emax: read-out: Emax ± SEM
T4 construct: FLAG (N); Gαi2-Cys352Ile (fusion partner) (C); expressed in transfected cells
T4 sequence (Q9NQS5 whole entry N362S, the tested form may be a part): as the sequence (Q9NQS5 whole entry F187A, the tested form may be a part) above, with A187F, N362S counted along it
Method: as §1, §2

[4] = biological target: T5, GPR84 S169A (GPR84-Gi2α fusion protein) (Homo sapiens, UniProt Q9NQS5, S169A); assay: [35S]GTPγS binding assay; assay type: biochemical; settings: for Emax: read-out: Emax ± SEM; for fold reduced potency compared to wild type: Ser169Ala
T5 construct: FLAG (N); Gαi2-Cys352Ile (fusion partner) (C); expressed in transfected cells
T5 sequence (Q9NQS5 whole entry S169A, the tested form may be a part): as the sequence (Q9NQS5 whole entry F187A, the tested form may be a part) above, with S169A, A187F counted along it
Method: as §1, §2

[5] = biological target: T6, GPR84 T167A (GPR84-Gi2α fusion protein) (Homo sapiens, UniProt Q9NQS5, T167A); assay: [35S]GTPγS binding assay; assay type: biochemical; settings: for Emax: read-out: Emax ± SEM; for fold reduction in potency compared to wild type: Thr167Ala
T6 construct: FLAG (N); Gαi2-Cys352Ile (fusion partner) (C); expressed in transfected cells
T6 sequence (Q9NQS5 whole entry T167A, the tested form may be a part): as the sequence (Q9NQS5 whole entry F187A, the tested form may be a part) above, with T167A, A187F counted along it
Method: as §1, §2

[6] = biological target: T7, GPR84 W360A (GPR84-Gi2α fusion protein) (Homo sapiens, UniProt Q9NQS5, W360A); assay: [35S]GTPγS binding assay; assay type: biochemical; settings: for fold reduced potency compared to wild type: Trp360Ala; for Emax: read-out: Emax ± SEM
T7 construct: FLAG (N); Gαi2-Cys352Ile (fusion partner) (C); expressed in transfected cells
T7 sequence (Q9NQS5 whole entry W360A, the tested form may be a part): as the sequence (Q9NQS5 whole entry F187A, the tested form may be a part) above, with A187F, W360A counted along it
Method: as §1, §2

GPR84 Y332A = biological target: T8, GPR84 Y332A (Homo sapiens, UniProt Q9NQS5, Y332A); assay: [35S]GTPγS binding assay; assay type: biochemical; settings: for Emax: read-out: Emax ± SEM
T8 construct: FLAG (N); Gαi2-Cys352Ile (fusion partner) (C); expressed in transfected cells
T8 sequence (Q9NQS5 whole entry Y332A, the tested form may be a part): as the sequence (Q9NQS5 whole entry F187A, the tested form may be a part) above, with A187F, Y332A counted along it
Method: as §1, §2

GPR84 Y332F = biological target: T9, GPR84 Y332F (Homo sapiens, UniProt Q9NQS5, Y332F); assay: [35S]GTPγS binding assay; assay type: biochemical; settings: for Emax: read-out: Emax ± SEM
T9 construct: FLAG (N); Gαi2-Cys352Ile (fusion partner) (C); expressed in transfected cells
T9 sequence (Q9NQS5 whole entry Y332F, the tested form may be a part): as the sequence (Q9NQS5 whole entry F187A, the tested form may be a part) above, with A187F, Y332F counted along it
Method: as §1, §2

[7] = biological target: T10, GPR84 Y69A (GPR84-Gi2α fusion protein) (Homo sapiens, UniProt Q9NQS5, Y69A); assay: [35S]GTPγS binding assay; assay type: biochemical; settings: for Emax: read-out: Emax ± SEM
T10 construct: FLAG (N); Gαi2-Cys352Ile (fusion partner) (C); expressed in transfected cells
T10 sequence (Q9NQS5 whole entry Y69A, the tested form may be a part): as the sequence (Q9NQS5 whole entry F187A, the tested form may be a part) above, with Y69A, A187F counted along it
Method: as §1, §2

[8] = biological target: T11, GPR84 Y81A (GPR84-Gi2α fusion protein) (Homo sapiens, UniProt Q9NQS5, Y81A); assay: [35S]GTPγS binding assay; assay type: biochemical; settings: for fold reduced potency compared to wild type: Tyr81Ala; for Emax: read-out: Emax ± SEM
T11 construct: FLAG (N); Gαi2-Cys352Ile (fusion partner) (C); expressed in transfected cells
T11 sequence (Q9NQS5 whole entry Y81A, the tested form may be a part): as the sequence (Q9NQS5 whole entry F187A, the tested form may be a part) above, with Y81A, A187F counted along it
Method: as §1, §2

[9] = biological target: GPR84-WT (GPR84-Gi2α fusion protein) (Homo sapiens, UniProt Q9NQS5); assay: [35S]GTPγS binding assay; assay type: biochemical; settings: for Emax: read-out: Emax ± SEM
GPR84-WT (GPR84-Gi2α fusion protein), sequence (Q9NQS5 whole entry, the tested form may be a part): as the sequence (Q9NQS5 whole entry F187A, the tested form may be a part) above, with A187F counted along it
GPR84-WT (GPR84-Gi2α fusion protein), sequence (P04899 with tags, fused parts or gaps C352I partner): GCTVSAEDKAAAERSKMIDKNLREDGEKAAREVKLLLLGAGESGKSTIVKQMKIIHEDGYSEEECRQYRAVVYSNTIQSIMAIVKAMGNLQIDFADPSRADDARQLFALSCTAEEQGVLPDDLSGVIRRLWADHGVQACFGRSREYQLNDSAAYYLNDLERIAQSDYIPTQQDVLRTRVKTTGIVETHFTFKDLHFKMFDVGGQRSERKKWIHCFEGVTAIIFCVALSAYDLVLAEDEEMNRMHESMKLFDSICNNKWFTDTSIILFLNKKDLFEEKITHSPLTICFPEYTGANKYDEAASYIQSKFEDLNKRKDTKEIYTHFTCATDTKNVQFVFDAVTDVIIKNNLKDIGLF
Method: as §1, §2

GPR84 = GPR84 (Homo sapiens, UniProt Q9NQS5); assay: CHO-K1-based PathHunter β-arrestin-2 recruitment assay; assay type: cell-based; parameters: host or cells: CHO-K1; settings: for Emax: read-out: β-arrestin-2 %Emax ± SEM
GPR84, sequence (Q9NQS5 whole entry): as the sequence (Q9NQS5 whole entry F187A, the tested form may be a part) above, with A187F counted along it
Method: Cells were stimulated with test ligands for 90 min. Compounds were prepared at 5× concentration in DPBS containing 0.1% BSA and 0.125% Tween-80 to minimise aggregation. β-arrestin recruitment was quantified using the PathHunter® β-Arrestin Assay (DiscoverX 93-0001) following the manufacturer’s instructions. Luminescence was recorded after 18 h using a PHERAstar® FS plate reader.

[10] = F187A, read-out: pEC50 ± SEM (converted)
[11] = L336A, read-out: pEC50 ± SEM (converted)

## Cc1cc(CCCc2cc(O)c[n+]([O-])c2)ccc1Cl [OX04954]
[1]; [10]
  EC50: 0.107 nM
[2]; [11]
  EC50: 0.0427 nM
[3]; [35S]GTPγS
  fold reduction in potency compared to wild type: ~10 fold
[3]; [35S]GTPγS, N104A
  EC50: 11.7 nM
  Emax: 130 ± 20%
GPR84 N362S; [35S]GTPγS, N362S
  EC50: 24 nM
  Emax: 124 ± 19%
[4]; [35S]GTPγS, S169A
  EC50: 380 nM
  Emax: 47 ± 11%
[4]; [35S]GTPγS
  fold reduced potency compared to wild type: more than 1000 fold
[5]; [35S]GTPγS, T167A
  EC50: 15.1 nM
  Emax: 129 ± 15%
[5]; [35S]GTPγS
  fold reduction in potency compared to wild type: ~10 fold
[6]; [35S]GTPγS
  fold reduced potency compared to wild type: ~10 fold
[6]; [35S]GTPγS, W360A
  EC50: 13.5 nM
  Emax: 75 ± 8%
GPR84 Y332A; [35S]GTPγS, Y332A
  EC50: 0.427 nM
  Emax: 60 ± 11%
GPR84 Y332F; [35S]GTPγS, Y332F
  EC50: 4.17 nM
  Emax: 151 ± 10%
[7]; [35S]GTPγS, Y69A
  EC50: 5.13 nM
  Emax: 106 ± 4%
[8]; [35S]GTPγS
  fold reduced potency compared to wild type: ~10 fold
[8]; [35S]GTPγS, Y81A
  EC50: 16.2 nM
  Emax: 133 ± 18%
[9]; [35S]GTPγS, GPR84-WT, Extended Data Table 3, read-out: pEC50 ± SEM (converted)
  EC50: 0.661 nM
[9]; [35S]GTPγS, GPR84-WT, Extended Data Tables 1 and 5
  Emax: 129 ± 12%
[9]; [35S]GTPγS, GPR84-WT, Extended Data Tables 1 and 5, read-out: pEC50 ± SEM (converted)
  EC50: 0.661 nM
GPR84; compared to OX04929 (so in the source)
  change in efficacy in β-arrestin-2 recruitment: no significant change
GPR84
  Emax: 71 ± 1.3%
GPR84; wild type GPR84, CHO-K1 PathHunter, read-out: β-arrestin-2 pEC50 ± SEM (converted)
  EC50: 93.3 nM

## [O-][n+]1cc(O)cc(CCc2ccc(Cl)c(C(F)(F)F)c2)c1 [OX04529]
[1]; [10]
  EC50: 0.102 nM
[1]; Phe187Ala
  fold greater potency than at wild type: more than 10 fold
[1]; Phe187Ala, read-out: EC50
  EC50: ~0.1 nM
[2]; [11]
  EC50: 0.0692 nM
[2]; Leu336Ala
  fold greater potency than at wild type: more than 10 fold
[2]; Leu336Ala, read-out: EC50
  EC50: ~0.1 nM
[3]; [35S]GTPγS
  fold reduction in potency compared to wild type: 5 fold
[3]; [35S]GTPγS, N104A
  EC50: 3.98 nM
[3]
  Emax: 68 ± 8%
GPR84 N362S; [35S]GTPγS, N362S
  EC50: 16.6 nM
GPR84 N362S
  Emax: 126 ± 30%
[4]; [35S]GTPγS, S169A
  EC50: 417 nM
[4]; [35S]GTPγS
  fold reduced potency compared to wild type: ~300 fold
[4]
  Emax: 30 ± 2%
[5]; [35S]GTPγS, T167A
  EC50: 17.8 nM
[5]; [35S]GTPγS
  fold reduction in potency compared to wild type: greater than 10 fold
[5]
  Emax: 82 ± 10%
[6]; [35S]GTPγS
  fold reduced potency compared to wild type: ~10 fold
[6]; [35S]GTPγS, W360A
  EC50: 8.71 nM
[6]
  Emax: 75 ± 10%
GPR84 Y332A; [35S]GTPγS, Y332A
  EC50: 0.347 nM
GPR84 Y332A
  Emax: 50 ± 12%
GPR84 Y332F; [35S]GTPγS, Y332F
  EC50: 2.57 nM
GPR84 Y332F
  Emax: 134 ± 12%
[7]; [35S]GTPγS, Y69A
  EC50: 4.57 nM
[7]
  Emax: 94 ± 9%
[8]; [35S]GTPγS
  fold reduced potency compared to wild type: ~10 fold
[8]; [35S]GTPγS, Y81A
  EC50: 21.4 nM
[8]
  Emax: 85 ± 4%
[9]; pEC50 ± SEM, [35S]GTPγS, GPR84-WT, Extended Data Table 3
  EC50: 1.26 nM
[9]; pEC50 ± SEM, [35S]GTPγS, GPR84-WT, Extended Data Tables 1 and 5
  EC50: 1.17 nM
[9]
  Emax: 119 ± 13%
GPR84
  Emax: 10 ± 1.5%
